Measured values published in US11072616B2, “Cyclic peptides targeting alpha-4-beta-7 integrin” (Zealand Pharma A/S, priority 2015, dated 2021).

Molecular target: T1, integrin α4β7 (Homo sapiens, UniProt P13612+P26010)
T1 sequence (P13612 34-977 limits assumed): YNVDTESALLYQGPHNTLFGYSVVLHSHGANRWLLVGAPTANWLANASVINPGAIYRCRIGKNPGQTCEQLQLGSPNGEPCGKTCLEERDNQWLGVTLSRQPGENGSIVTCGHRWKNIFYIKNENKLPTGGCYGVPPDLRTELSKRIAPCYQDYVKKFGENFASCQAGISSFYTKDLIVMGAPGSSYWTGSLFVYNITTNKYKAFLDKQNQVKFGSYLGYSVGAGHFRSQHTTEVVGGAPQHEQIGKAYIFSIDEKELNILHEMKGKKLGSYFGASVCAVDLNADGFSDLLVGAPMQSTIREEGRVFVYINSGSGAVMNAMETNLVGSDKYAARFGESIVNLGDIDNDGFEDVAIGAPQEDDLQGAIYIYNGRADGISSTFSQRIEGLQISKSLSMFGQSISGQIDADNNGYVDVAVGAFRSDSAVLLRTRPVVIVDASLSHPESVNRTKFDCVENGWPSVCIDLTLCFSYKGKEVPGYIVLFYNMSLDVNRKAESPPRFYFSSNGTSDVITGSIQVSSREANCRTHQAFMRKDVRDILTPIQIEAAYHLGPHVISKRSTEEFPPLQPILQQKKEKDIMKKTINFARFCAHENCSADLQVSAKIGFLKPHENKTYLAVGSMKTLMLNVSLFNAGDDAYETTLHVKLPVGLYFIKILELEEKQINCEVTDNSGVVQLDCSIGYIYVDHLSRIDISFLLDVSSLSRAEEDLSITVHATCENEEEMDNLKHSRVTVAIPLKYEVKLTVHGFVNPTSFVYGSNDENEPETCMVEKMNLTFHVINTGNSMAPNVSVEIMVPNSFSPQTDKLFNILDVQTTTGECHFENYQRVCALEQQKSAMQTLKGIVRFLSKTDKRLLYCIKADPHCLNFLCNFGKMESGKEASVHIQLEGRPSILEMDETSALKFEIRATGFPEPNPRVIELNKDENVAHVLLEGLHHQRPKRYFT
T1 sequence (P26010 20-723 limits assumed): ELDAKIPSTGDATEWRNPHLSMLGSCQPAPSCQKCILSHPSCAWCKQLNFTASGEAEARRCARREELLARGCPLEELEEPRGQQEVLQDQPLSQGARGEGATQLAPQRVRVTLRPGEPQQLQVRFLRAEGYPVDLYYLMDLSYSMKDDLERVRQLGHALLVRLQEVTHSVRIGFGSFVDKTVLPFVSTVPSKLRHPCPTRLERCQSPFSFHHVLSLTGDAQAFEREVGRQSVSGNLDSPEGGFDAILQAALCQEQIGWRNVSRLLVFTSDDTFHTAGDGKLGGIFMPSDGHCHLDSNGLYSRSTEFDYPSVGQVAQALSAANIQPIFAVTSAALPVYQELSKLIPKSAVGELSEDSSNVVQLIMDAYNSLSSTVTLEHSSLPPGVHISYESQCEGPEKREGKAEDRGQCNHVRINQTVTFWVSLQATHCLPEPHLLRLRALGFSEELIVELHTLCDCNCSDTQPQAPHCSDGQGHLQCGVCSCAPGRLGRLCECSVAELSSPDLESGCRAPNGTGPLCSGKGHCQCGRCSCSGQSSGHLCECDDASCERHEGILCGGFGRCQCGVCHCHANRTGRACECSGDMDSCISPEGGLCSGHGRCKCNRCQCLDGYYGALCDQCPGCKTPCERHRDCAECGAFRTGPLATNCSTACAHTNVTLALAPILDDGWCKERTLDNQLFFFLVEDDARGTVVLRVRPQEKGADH
Test: Integrin α4β7—MAdCAM-1 competition assay (ELISA)
Format: binding
Conditions: ratio a4b1 ELISA IC50 / a4b7 ELISA IC50
Experimental: Integrin α4β7—MAdCAM-1 Competition Assay
The plate was incubated at 4° C. overnight. […] The plate was then incubated for 1 hour at room temperature. The plate was washed three times with wash buffer (50 mM Tris, 100 mM NaCl, 1 mM MnCl2, 0.05% Tween). To each well, 50 μl of compound diluted in assay buffer was added by transfer from a compound serial dilution plate. […] The plate was incubated at room temperature with shaking for 2 hours to reach binding equilibrium. Then the plate was washed three times in wash buffer and 100 μl anti-human IgG Fc specific-horseradish peroxidase (HRP) (Abcam, Ab97225) diluted at 1:2000 in assay buffer was added to each well. The plate was incubated at room temperature for 1 hour under agitation. The plates were then washed three times and 100 μl of 1,3′,5,5′-tetramethylbenxidie (TMB) was then added to each well.

SMILES | Selectivity ELISA
CC[C@H](C)[C@@H]1NC(=O)[C@H](CC(=O)O)NC(=O)[C@H](CC(C)C)NC(=O)C[C@H](CCCCN)NC(=O)[C@H](Cc2ccc(CN)cc2)NC(=O)[C@@H]2CCCN2[C@H](C(=O)NC(C)(C)C)[C@H](C)NC1=O [Compound 215] | 12.4
CC(C)C[C@@H]1NC(=O)[C@H](Cc2csc(-c3ccccn3)n2)NC(=O)[C@@H]2CCCN2[C@H](C(=O)NC(C)(C)C)[C@H](C)NC(=O)[C@H]([C@@H](C)O)NC(=O)[C@H](CC(=O)O)NC1=O [Compound 95] | 2.4
CC(C)C[C@@H]1NC(=O)C[C@H](CCCCN)NC(=O)C2(CCNCC2)NC(=O)[C@@H]2CCCN2[C@H](C(=O)NC(C)(C)C)[C@H](C)NC(=O)[C@H]([C@@H](C)O)NC(=O)[C@H](CC(=O)O)NC1=O [Compound 275] | 7.7
COc1cccc(Cl)c1-c1ccc(C[C@@H]2NC(=O)[C@@H]3CCCN3[C@H](C(=O)NC(C)(C)C)[C@H](C)NC(=O)[C@H]([C@@H](C)O)NC(=O)[C@H](CC(=O)O)NC(=O)[C@H](CC(C)C)NC(=O)C[C@H](CCCCN)NC2=O)cc1 [Compound 269] | 31.6
CC(C)C[C@@H]1NC(=O)[C@@H](CCCNC(=N)N)N(C)C(=O)[C@H](Cc2ccc(O)cc2)NC(=O)[C@@H]2CCCN2[C@H](C(=O)NC(C)(C)C)[C@H](C)NC(=O)[C@H]([C@@H](C)O)NC(=O)[C@H](CC(=O)O)NC1=O [Compound 157] | 55.3
CC(C)C[C@@H]1NC(=O)[C@@H](CCCCN)NC(=O)[C@H](Cc2ccc(-c3ccccc3)cc2)NC(=O)[C@@H]2CCCN2[C@H](C(=O)NC(C)(C)C)[C@H](C)NC(=O)[C@H]([C@@H](C)O)NC(=O)[C@H](CC(=O)O)NC1=O [Compound 110] | 21.3
CCC[C@@H]1NC(=O)[C@@H]2CCCN2[C@H](C(=O)NC(C)(C)C)[C@H](C)NC(=O)[C@H]([C@@H](C)O)NC(=O)[C@H](CC(=O)O)NC(=O)[C@H](CC(C)C)NC1=O [Compound 71] | 4.4
COc1ccc(C[C@@H]2NC(=O)[C@@H]3CCCN3[C@H](C(=O)NC(C)(C)C)[C@H](C)NC(=O)[C@H]([C@@H](C)O)NC(=O)[C@H](CC(=O)O)NC(=O)[C@H](CC(C)C)NC(=O)[C@H]3CCCN3C2=O)cc1OC [Compound 127] | 7.8
CC(C)C[C@@H]1NC(=O)C[C@H](CCCCN)NC(=O)[C@H](CC2CCCCC2)NC(=O)[C@@H]2CCCN2[C@H](C(=O)NC(C)(C)C)[C@H](C)NC(=O)[C@H]([C@@H](C)O)NC(=O)[C@H](CC(=O)O)NC1=O [Compound 210] | 16.0
CC[C@H](C)[C@@H]1NC(=O)[C@H](CC(=O)O)NC(=O)[C@H](CC(C)C)NC(=O)C[C@H](CCCCN)NC(=O)[C@@H](Cc2ccc(CN)cc2)NC(=O)[C@@H]2CCCN2[C@H](C(=O)NC(C)(C)C)[C@H](C)NC1=O [Compound 253] | 15.6
C=CCOc1ccc(C[C@@H]2NC(=O)[C@@H]3CCCN3[C@H](C(=O)NC(C)(C)C)[C@H](C)NC(=O)[C@H]([C@@H](C)O)NC(=O)[C@H](CC(=O)O)NC(=O)[C@H](CC(C)C)NC(=O)CNC2=O)cc1 [Compound 163] | 11.0
CC(C)C[C@@H]1NC(=O)[C@H]2CCCCN2C(=O)[C@H](Cc2ccccc2I)NC(=O)[C@@H]2CCCN2[C@H](C(=O)NC(C)(C)C)[C@H](C)NC(=O)[C@H]([C@@H](C)O)NC(=O)[C@H](CC(=O)O)NC1=O [Compound 133] | 5.3
CC(C)C[C@@H]1NC(=O)[C@H]2CCCCN2C(=O)[C@H](Cc2ccc(-c3ccccc3)cc2)NC(=O)[C@@H]2CCCN2[C@H](C(=O)NC(C)(C)C)[C@H](C)NC(=O)[C@H]([C@@H](C)O)NC(=O)[C@H](CC(=O)O)NC1=O [Compound 138] | 5.0
CC[C@H](C)[C@@H]1NC(=O)[C@H](CC(=O)O)NC(=O)[C@H](CC(C)C)NC(=O)[C@H](Cc2c[nH]c3ccccc23)NC(=O)[C@@H]2CCCN2[C@H](C(=O)NC(C)(C)C)[C@H](C)NC1=O [Compound 8] | 0.9
CC(C)C[C@@H]1NC(=O)[C@H]2C[C@@H](O)CN2C(=O)[C@H](Cc2ccc(O)cc2)NC(=O)[C@@H]2CCCN2[C@H](C(=O)NC(C)(C)C)[C@H](C)NC(=O)[C@H]([C@@H](C)O)NC(=O)[C@H](CC(=O)O)NC1=O [Compound 141] | 2.0
CC(C)C[C@@H]1NC(=O)[C@H](Cc2cccnc2)NC(=O)[C@@H]2C[C@@H](O)CN2[C@H](C(=O)NC(C)(C)C)[C@H](C)NC(=O)[C@H]([C@@H](C)O)NC(=O)[C@H](CC(=O)O)NC1=O [Compound 44] | 2.3
CC(C)C[C@@H]1NC(=O)[C@H]2CCCCN2C(=O)[C@H](Cc2cscn2)NC(=O)[C@@H]2CCCN2[C@H](C(=O)NC(C)(C)C)[C@H](C)NC(=O)[C@H]([C@@H](C)O)NC(=O)[C@H](CC(=O)O)NC1=O [Compound 131] | 3.1
CC(C)C[C@@H]1NC(=O)[C@H]2CCCN2C(=O)[C@H](Cc2cc(F)c(F)c(F)c2)NC(=O)[C@@H]2CCCN2[C@H](C(=O)NC(C)(C)C)[C@H](C)NC(=O)[C@H]([C@@H](C)O)NC(=O)[C@H](CC(=O)O)NC1=O [Compound 128] | 11.4
CC(C)C[C@@H]1NC(=O)[C@@H]2CCN2C(=O)C[C@H](CCCCN)NC(=O)[C@@H]2CCCN2[C@H](C(=O)NC(C)(C)C)[C@H](C)NC(=O)[C@H]([C@@H](C)O)NC(=O)[C@H](CC(=O)O)NC1=O [Compound 319] | 4.8
CC(C)C[C@@H]1NC(=O)[C@H](Cc2ccc(-c3ccccc3)cc2)NC(=O)[C@@H]2C[C@@H](F)CN2[C@H](C(=O)NC(C)(C)C)[C@H](C)NC(=O)[C@H]([C@@H](C)O)NC(=O)[C@H](CC(=O)O)NC1=O [Compound 46] | 2.4
CC(C)C[C@@H]1NC(=O)C[C@H](CCCCN)NC(=O)[C@H](Cc2ccc(CN)cc2)NC(=O)[C@@H]2CCCN2[C@H](C(=O)NC(C)(C)C)[C@H](C)NC(=O)[C@H](C(C)C)NC(=O)[C@H](CC(=O)O)NC1=O [Compound 254] | 33.0
CC(C)C[C@@H]1NC(=O)[C@H]2C[C@H](O)CN2C(=O)[C@H](Cc2ccc(CN)cc2)NC(=O)[C@@H]2CCCN2[C@H](C(=O)NC(C)(C)C)[C@H](C)NC(=O)[C@H]([C@@H](C)O)NC(=O)[C@H](CC(=O)O)NC1=O [Compound 152] | 13.2
CC(C)C[C@@H]1NC(=O)[C@H](Cc2csc(-c3ccncc3)n2)NC(=O)[C@@H]2CCCN2[C@H](C(=O)NC(C)(C)C)[C@H](C)NC(=O)[C@H]([C@@H](C)O)NC(=O)[C@H](CC(=O)O)NC1=O [Compound 97] | 2.5
CC(C)C[C@@H]1NC(=O)c2cc(cc(-c3ccncc3)c2)CNC(=O)[C@@H]2CCCN2[C@H](C(=O)NC(C)(C)C)[C@H](C)NC(=O)[C@H]([C@@H](C)O)NC(=O)[C@H](CC(=O)O)NC1=O [Compound 362] | 5.6
C=CCOc1ccc(C[C@@H]2NC(=O)[C@@H]3CCCN3[C@H](C(=O)NC(C)(C)C)[C@H](C)NC(=O)[C@H]([C@@H](C)O)NC(=O)[C@H](CC(=O)O)NC(=O)[C@H](CC(C)C)NC(=O)[C@@H](C(C)C)NC2=O)cc1 [Compound 166] | 7.7
